Test results from patent US9353051B2, “Antiviral drugs for treatment or prevention of dengue infection” (Siga Technologies Inc., priority 2007, dated 2016).
pEC50: −log10 of the molar value. Where two headings read alike, the source gives them in different places.

Legend:
Den-3 = test: viral yield assay against Den-3; format: cell-based; details: Dengue virus
[1] = system: Dengue-2 (Strain New Guinea C); test: viral yield assay against Dengue-2 in Vero cells; format: cell-based; details: Dengue virus, Vero cells; for EC90: read-out: EC90 Yield Den-2
Method in brief: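 Vero cells infected with dengue-2 at MOI 0.1 were treated with compound (DMSO control) at 37° C., harvested 48 h post infection and titered on Vero cells.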

[2] = system: Bovine Viral Diarrhea Virus (BVDV); test: specificity: activity against BVDV; format: cell-based
Protocol: (§1) Select compounds were also tested for more broad spectrum activity against other members of the Flaviviridae family including Modoc, which is a murine flavivirus, as well as Bovine Viral Diarrhea Virus (BVDV), which is a Pestivirus. Since dengue virus is able to replicate in multiple cell lines and to ensure that the activity seen in vero cells is consistent, select compounds were also tested for their effective concentration in a viral yield assay against dengue-2 in C6/36 mosquito cells.

Modoc = test: specificity: activity against Modoc; format: cell-based, murine flavivirus; details: Orthoflavivirus, in Mus musculus
Protocol: as §1

Den-4 = test: viral yield assay against Den-4; format: cell-based; details: Dengue virus
Den-1 = test: viral yield assay against Den-1; format: cell-based; details: Dengue virus
[3] = MOI 0.1, harvested 48 hours post infection, read-out: Activity (anti-dengue 2 viral activity, EC50)
[4] = viral yield assay, read-out: EC50 Yield Den-2
[5] = Bovine viral diarrhea virus isolates and strains, read-out: Specificity BVDV
[6] = Bovine viral diarrhea virus isolates and strains; read-out: Specificity BVDV

SMILES: CCN(CC)S(=O)(=O)c1ccc(NC(=O)Cn2nnc3ccccc3c2=O)cc1 [Compound 3, N-(4-Diethylsulfamoyl-phenyl)-2-(4-oxo-4H-benzo[d][1,2,3]triazin-3-yl)-acetamide]
- pEC50 (Den-3): 6.00
- EC90 (Den-3): 12.1 µM
- pEC50 [1, 3]: 5.00 to 6.00
- pEC50 [1, 4]: 5.40
- EC90 ([1]; viral yield assay): 10 µM
- pEC50 [2, 5]: < 4.30
- pEC50 (Modoc): 5.51
- pEC50 (Den-4): 5.64
- EC90 (Den-4): 10 µM
- pEC50 (Den-1): 5.89
- EC90 (Den-1): 5.1 µM

SMILES: CCN(CC)S(=O)(=O)c1ccc(NC(=O)Cn2cnc3c2c(=O)n(C)c(=O)n3C)cc1 [Compound 4, N-(4-Diethylsulfamoyl-phenyl)-2-(1,3-dimethyl-2,6-dioxo-1,2,3,6-tetrahydro-purin-7-yl)-acetamide]
- pEC50 (Den-3): 4.87
- EC90 (Den-3): 22.6 µM
- pEC50 [1, 3]: 5.00 to 6.00
- pEC50 [1, 4]: 5.11
- EC90 ([1]; viral yield assay): 8.9 µM
- pEC50 [2, 6]: < 4.30
- pEC50 (Modoc): < 4.60
- pEC50 (Den-4): 5.37
- EC90 (Den-4): 22.7 µM

SMILES: CC(C)N(C)S(=O)(=O)c1ccc(NC(=O)Cn2cnc3ccc(Cl)cc3c2=O)cc1 [Compound 6, 2-(6-Chloro-4-oxo-4H-quinazolin-3-yl)-N-[4-(isopropyl-methyl-sulfamoyl)-phenyl]-acetamide]
- pEC50 [1, 3]: 5.00 to 6.00
- pEC50 [1, 4]: 5.74
- EC90 ([1]; viral yield assay): 43.2 µM
- pEC50 [2, 6]: 4.19

SMILES: CC(C)N(C)S(=O)(=O)c1ccc(NC(=O)Cn2cnc3cc(F)ccc3c2=O)cc1 [Compound 7, 2-(7-Fluoro-4-oxo-4H-quinazolin-3-yl)-N-[4-(isopropyl-methyl-sulfamoyl)-phenyl]-acetamide]
- pEC50 [1, 3]: 5.00 to 6.00
- pEC50 [1, 4]: 5.34
- EC90 ([1]; viral yield assay): > 50 µM
- pEC50 [2, 6]: < 4.30

SMILES: CCN(CC)S(=O)(=O)c1ccc(NC(=O)Cn2[nH]c(=O)c3ccccc3c2=O)cc1 [Compound 8, N-(4-Diethylsulfamoyl-phenyl)-2-(1,4-dioxo-3,4-dihydro-1H-phthalazin-2-yl)-acetamide]
- pEC50 [1, 3]: 5.00 to 6.00
- pEC50 [1, 4]: 5.55
- EC90 ([1]; viral yield assay): 25.6 µM
- pEC50 [2, 6]: < 4.30

SMILES: CCN(CC)S(=O)(=O)c1ccc(NC(=O)CN2C(=O)c3cccc4cccc(c34)C2=O)cc1 [Compound 9, N-(4-Diethylsulfamoyl-phenyl)-2-(1,3-dioxo-1H,3H-benzo[de]isoquinolin-2-yl)-acetamide]
- pEC50 [1, 3]: 5.00 to 6.00
- pEC50 [1, 4]: 5.89
- EC90 ([1]; viral yield assay): 7.3 µM
- pEC50 [2, 6]: < 4.30

SMILES: CCN(CC)S(=O)(=O)c1ccc(OC)c(NC(=O)CC(C)C)c1 [Compound 15, N-(5-Diethylsulfamoyl-2-methoxy-phenyl)-3-methyl-butyramide]
- pEC50 [1, 3]: 5.00 to 6.00
- pEC50 [1, 4]: 5.62
- EC90 ([1]; viral yield assay): > 100 µM
- pEC50 [2, 5]: < 4.30
- pEC50 (Modoc): 5.00
- pEC50 (Den-4): 5.92
- EC90 (Den-4): 37.2 µM

SMILES: CCN(CC)S(=O)(=O)c1ccc(OC)c(NC(=O)Cc2ccccc2)c1 [Compound 16, N-(5-Diethylsulfamoyl-2-methoxy-phenyl)-2-phenyl-acetamide]
- pEC50 [1, 3]: 5.00 to 6.00
- pEC50 [1, 4]: 5.24
- EC90 ([1]; viral yield assay): 10.3 µM
- pEC50 [2, 5]: < 4.30
- pEC50 (Modoc): 5.44
- pEC50 (Den-4): 5.68
- EC90 (Den-4): 6.4 µM

SMILES: CCCCC(=O)Nc1cc(S(=O)(=O)N(CC)CC)ccc1OC [Compound 21, Pentanoic acid (5-diethylsulfamoyl-2-methoxy-phenyl)-amide]
- pEC50 [1, 3]: 4.60 to 5.00
- pEC50 [1, 4]: 4.85
- EC90 ([1]; viral yield assay): 24.1 µM
- pEC50 [2, 5]: < 4.30
- pEC50 (Modoc): 5.22
- pEC50 (Den-4): 5.09
- EC90 (Den-4): 12 µM

SMILES: CCN(CC(=O)NCCc1ccc(S(N)(=O)=O)cc1)Cc1nc2cc(OC)c(OC)cc2c(=O)[nH]1 [Compound 118, 2-[(6,7-Dimethoxy-4-oxo-3,4-dihydro-quinazolin-2-ylmethyl)-ethyl-amino]-N-[2-(4-sulfamoyl-phenyl)-ethyl]-acetamide]
- pEC50 [1, 3]: < 4.60

SMILES: NS(=O)(=O)c1ccc(NC(=O)Cn2c(=O)cnc3ccccc32)cc1 [Compound 119, 2-(2-Oxo-2H-quinoxalin-1-yl)-N-(4-sulfamoyl-phenyl)-acetamide]
- pEC50 [1, 3]: < 4.60

SMILES: CCN(CC(=O)Nc1ccc(S(N)(=O)=O)cc1)Cc1nc2cc(OC)c(OC)cc2c(=O)[nH]1 [Compound 120, 2-[(6,7-Dimethoxy-4-oxo-3,4-dihydro-quinazolin-2-ylmethyl)-ethyl-amino]-N-(4-sulfamoyl-phenyl)-acetamide]
- pEC50 [1, 3]: < 4.60

SMILES: O=C(Cn1cnc2ccccc2c1=O)Nc1cccc(S(=O)(=O)N2CCCC2)c1 [Compound 121, 2-(4-Oxo-4H-quinazolin-3-yl)-N-[3-(pyrrolidine-1-sulfonyl)-phenyl]-acetamide]
- pEC50 [1, 3]: < 4.60

SMILES: CN(c1ccccc1)S(=O)(=O)c1cccc(NC(=O)Cn2cnc3ccccc3c2=O)c1 [Compound 122, N-[3-(Methyl-phenyl-sulfamoyl)-phenyl]-2-(4-oxo-4H-quinazolin-3-yl)-acetamide]
- pEC50 [1, 3]: < 4.60

SMILES: O=C(Cn1cnc2cc([N+](=O)[O-])ccc2c1=O)Nc1ccc(S(=O)(=O)N2CCCC2)cc1 [Compound 123, 2-(7-Nitro-4-oxo-4H-quinazolin-3-yl)-N-[4-(pyrrolidine-1-sulfonyl)-phenyl]-acetamide]
- pEC50 [1, 3]: < 4.60

SMILES: O=C(COC(=O)Cn1cnc2ccccc2c1=O)Nc1ccc(S(=O)(=O)N2CCCC2)cc1 [Compound 124, (4-Oxo-4H-quinazolin-3-yl)-acetic acid [4-(pyrrolidine-1-sulfonyl)-phenylcarbamoyl]-methyl ester]
- pEC50 [1, 3]: < 4.60

SMILES: COc1ccc(S(=O)(=O)N(C)C)cc1NC(=O)COC(=O)Cn1cnc2ccccc2c1=O [Compound 125, (4-Oxo-4H-quinazolin-3-yl)-acetic acid (5-dimethylsulfamoyl-2-methoxy-phenylcarbamoyl)-methyl ester]
- pEC50 [1, 3]: < 4.60

SMILES: COc1ccc(S(=O)(=O)N(C)C)cc1NC(=O)Cn1cnc2cc([N+](=O)[O-])ccc2c1=O [Compound 126, N-(5-Dimethylsulfamoyl-2-methoxy-phenyl)-2-(7-nitro-4-oxo-4H-quinazolin-3-yl)-acetamide]
- pEC50 [1, 3]: < 4.60

SMILES: O=C(Cn1cnc2ccccc2c1=O)Nc1ccc(S(=O)(=O)O)cc1 [Compound 127, 4-[2-(4-Oxo-4H-quinazolin-3-yl)-acetylamino]-benzenesulfonic acid]
- pEC50 [1, 3]: < 4.60

SMILES: CN(C)S(=O)(=O)c1cccc(COC(=O)Cn2cnc3ccccc3c2=O)c1 [Compound 128, (4-Oxo-4H-quinazolin-3-yl)-acetic acid 3-dimethylsulfamoyl-benzyl ester]
- pEC50 [1, 3]: < 4.60

SMILES: Cc1ccc(S(=O)(=O)N(C)C)cc1NC(=O)Cn1cnc2ccc(Cl)cc2c1=O [Compound 129, 2-(6-Chloro-4-oxo-4H-quinazolin-3-yl)-N-(5-dimethylsulfamoyl-2-methyl-phenyl)-acetamide]
- pEC50 [1, 3]: < 4.60

SMILES: NS(=O)(=O)c1ccc(CCNC(=O)Cn2c(=O)cnc3ccccc32)cc1 [Compound 130, 2-(2-Oxo-2H-quinoxalin-1-yl)-N-[2-(4-sulfamoyl-phenyl)-ethyl]-acetamide]
- pEC50 [1, 3]: < 4.60

SMILES: NS(=O)(=O)c1cccc(NC(=O)Cn2nnc3ccccc3c2=O)c1 [Compound 131, 2-(4-Oxo-4H-benzo[d][1,2,3]triazin-3-yl)-N-(3-sulfamoyl-phenyl)-acetamide]
- pEC50 [1, 3]: < 4.60

SMILES: CC(c1ccc(S(N)(=O)=O)cc1)N(C)C(=O)CCc1nc2ccccc2c(=O)[nH]1 (stereo not shown) [Compound 132, N-Methyl-3-(4-oxo-3,4-dihydro-quinazolin-2-yl)-N-[1-(4-sulfamoyl-phenyl)-ethyl]-propionamide]
- pEC50 [1, 3]: < 4.60

SMILES: CC(C)NS(=O)(=O)c1ccc(NC(=O)C(C)N(C)Cc2nc3ccccc3c(=O)[nH]2)cc1 (stereo not shown) [Compound 133, N-(4-Isopropylsulfamoyl-phenyl)-2-[methyl-(4-oxo-3,4-dihydro-quinazolin-2-ylmethyl)-amino]-propionamide]
- pEC50 [1, 3]: < 4.60

SMILES: O=C(Cn1cnc2ccc([N+](=O)[O-])cc2c1=O)Nc1ccc(S(=O)(=O)N2CCCCC2)cc1 [Compound 134, 2-(6-Nitro-4-oxo-4H-quinazolin-3-yl)-N-[4-(piperidine-1-sulfonyl)-phenyl]-acetamide]
- pEC50 [1, 3]: < 4.60

SMILES: O=C(Cn1cnc2ccc([N+](=O)[O-])cc2c1=O)Nc1ccc(S(=O)(=O)N2CCOCC2)cc1 [Compound 135, N-[4-(Morpholine-4-sulfonyl)-phenyl]-2-(6-nitro-4-oxo-4H-quinazolin-3-yl)-acetamide]
- pEC50 [1, 3]: < 4.60

SMILES: COc1ccc(NC(=O)Cn2cnc3ccccc3c2=O)cc1S(N)(=O)=O [Compound 136, N-(4-Methoxy-3-sulfamoyl-phenyl)-2-(4-oxo-4H-quinazolin-3-yl)-acetamide]
- pEC50 [1, 3]: < 4.60

SMILES: Cc1ccc(-n2c(CCC(=O)NCc3ccc(S(N)(=O)=O)cc3)nc3ccccc3c2=O)cc1 [Compound 137, 3-(4-Oxo-3-p-tolyl-3,4-dihydro-quinazolin-2-yl)-N-(4-sulfamoyl-benzyl)-propionamide]
- pEC50 [1, 3]: < 4.60

SMILES: O=C(Cn1cnc2ccc(Cl)cc2c1=O)Nc1ccc(S(=O)(=O)N2CCCCCC2)cc1 [Compound 138, N-[4-(Azepane-1-sulfonyl)-phenyl]-2-(6-chloro-4-oxo-4H-quinazolin-3-yl)-acetamide]
- pEC50 [1, 3]: < 4.60

SMILES: O=C(Cn1cnc2cc(F)ccc2c1=O)Nc1ccc(S(=O)(=O)N2CCCCCC2)cc1 [Compound 139, N-[4-(Azepane-1-sulfonyl)-phenyl]-2-(7-fluoro-4-oxo-4H-quinazolin-3-yl)-acetamide]
- pEC50 [1, 3]: < 4.60
